From US20100168197A1, “MUSCARINIC RECEPTOR ANTAGONISTS” (priority 2007, published 2010)

What follows are molecules tested on Guinea Pig trachea (assay: In-vitro functional assay, carbachol-contracted isolated trachea). Conditions: Cavia porcellus; isolated tissue, 1 μM carbachol contraction; range stated for the group of tested compounds.
Procedure: The contractile results are expressed as % of control E max. ED50 values are calculated by fitting a non-linear regression curve (Graph Pad Prism). pKb values are calculated by the formula pKb=−log [(molar concentration of antagonist/(dose ratio−1))]
where, dose ratio=ED50 in the presence of antagonist/ED50 in the absence of antagonist.
The Guinea Pig (400-600 gm) was procured and trachea was removed under anesthesia (sodium pentobarbital, 300 mg/kg i.p) and was immediately kept it in ice-cold Krebs Henseleit buffer. Indomethacin (10 μM) was present throughout the KH buffer to prevent the formation of bronchoactive prostanoids.
The tissue of adherent fascia was cleaned and was cut into strips of equal size (with approximately 4-5 tracheal rings in each strip). The epithelium was removed by careful rubbing, minimizing damage to the smooth muscle. […] Opposite ends of the cut rings were tied with the help of a thread. The tissue was mounted in isolated tissue baths containing 10 ml Krebs Henseleit buffer maintained at 37° C. and bubbled with carbogen, at a basal tension of 1 gm. The buffer was changed 4-5 times for about an hour. The tissue was equilibrated for 1 hour for stabilization. After 1 hour, the tissue was challenged with 1 μM carbachol. This was repeated after every 2-3 washes till two similar consecutive responses were obtained. At the end of stabilization, the tissue was washed for 30 minutes followed by incubation with suboptimal dose of MRA/Vehicle for 20 minutes prior to contraction of the tissues with 1 μM carbachol. The contractile response of tissues was recorded either on Powerlab data acquisition system or on Grass polygraph (Model 7). The relaxation was expressed as percentage of maximum carbachol response. The data was expressed as mean±s.e. mean for n observations. The EC50 was calculated as the concentration producing 50% of the maximum relaxation to 1 μM carbachol. The percent relaxation was compared between the treated and control tissues using non-parametric unpaired t-test. A p value of <0.05 was considered to be statistically significant.

Row | Structure (SMILES) | Kb
1 | Cc1n(CCCOC(=O)[C@](O)(c2ccccc2)[C@@H]2CCCC(F)(F)C2)cc[n+]1C [Compound No. 5, 1-[3-({(2R)-2-[(1R)-3,3-Difluorocyclohexyl]-2-hydroxy-2-phenylacetyl}oxy)propyl]-2,3-dimethyl-1H-imidazol-3-ium iodide] | 0.1 to 3.16 nM
2 | Cc1n(CCCOC(=O)C(O)(c2ccccc2)C2CCCCCC2)cc[n+]1C (centres unmarked) [Compound No. 6, 1-(3-{[Cycloheptyl(hydroxy)phenylacetyl]oxy}propyl)-2,3-dimethyl-1H-imidazol-3-ium iodide] | 0.1 to 3.16 nM
3 | Cc1n(CCCOC(=O)[C@](O)(c2ccccc2)[C@@H]2CCCC(F)(F)C2)cc[n+]1Cc1ccc(Br)cc1 [Compound No. 9, 3-(4-Bromobenzyl)-1-[3-({(2R)-2-[(1R)-3,3-difluorocyclohexyl]-2-hydroxy-2-phenylacetyl}oxy)propyl]-2-methyl-1H-imidazol-3-ium bromide] | 0.1 to 3.16 nM
4 | Cc1n(CCCOC(=O)[C@](O)(c2ccccc2)[C@@H]2CCC(F)(F)C2)cc[n+]1Cc1ccc(F)cc1 [Compound No. 13, 1-[3-({(2R)-2-[(1R)-3,3-Difluorocyclopentyl]-2-hydroxy-2-phenylacetyl}oxy)propyl]-3-(4-fluorobenzyl)-2-methyl-1H-imidazol-3-ium bromide] | 0.1 to 3.16 nM
5 | Cc1n(CCOC(=O)[C@](O)(c2ccccc2)[C@@H]2CCC(F)(F)C2)cc[n+]1Cc1ccccc1 [Compound No. 17, 3-Benzyl-1-[2-({(2R)-2-[(1R)-3,3-difluorocyclopentyl]-2-hydroxy-2-phenylacetyl}oxy)ethyl]-2-methyl-1H-imidazol-3-ium chloride] | 0.1 to 3.16 nM
6 | Cc1n(CCOC(=O)[C@](O)(c2ccccc2)[C@@H]2CCC(F)(F)C2)cc[n+]1C [Compound No. 19, 1-[2-({(2R)-2-[(1R)-3,3-Difluorocyclopentyl]-2-hydroxy-2-phenylacetyl}oxy)ethyl]-2,3-dimethyl-1H-imidazol-3-ium bromide] | 0.1 to 3.16 nM
7 | CC[n+]1ccn(CCCOC(=O)[C@](O)(c2ccccc2)[C@@H]2CCC(F)(F)C2)c1C [Compound No. 21, 1-[3-({(2R)-2-[(1R)-3,3-Difluorocyclopentyl]-2-hydroxy-2-phenylacetyl}oxy)propyl]-3-ethyl-2-methyl-1H-imidazol-3-ium iodide] | 0.1 to 3.16 nM
8 | Cc1n(CCCOC(=O)[C@](O)(c2ccccc2)[C@@H]2CCC(F)(F)C2)cc[n+]1CC1CC1 [Compound No. 22, 3-(Cyclopropylmethyl)-1-[3-({(2R)-2-[(1R)-3,3-difluorocyclopentyl]-2-hydroxy-2-phenylacetyl}oxy)propyl]-2-methyl-1H-imidazol-3-ium bromide] | 0.1 to 3.16 nM
9 | Cc1n(CCCOC(=O)[C@](O)(c2ccccc2)[C@@H]2CCC(F)(F)C2)cc[n+]1CC1CCCCC1 [Compound No. 23, 3-(Cyclohexylmethyl)-1-[3-({(2R)-2-[(1R)-3,3-difluorocyclopentyl]-2-hydroxy-2-phenylacetyl}oxy)propyl]-2-methyl-1H-imidazol-3-ium bromide] | 0.1 to 3.16 nM
10 | Cc1n(CCCOC(=O)[C@](O)(c2ccccc2)[C@@H]2CCC(F)(F)C2)cc[n+]1Cc1ccccc1 [Compound No. 28, 3-Benzyl-1-[3-({(2R)-2-[(1R)-3,3-difluorocyclopentyl]-2-hydroxy-2-phenylacetyl}oxy)propyl]-2-methyl-1H-imidazol-3-ium chloride] | 0.1 to 3.16 nM
11 | Cc1n(CCCOC(=O)[C@](O)(c2ccccc2)[C@@H]2CCC(F)(F)C2)cc[n+]1CCc1ccccc1 [Compound No. 29, 1-[3-({(2R)-2-[(1R)-3,3-Difluorocyclopentyl]-2-hydroxy-2-phenylacetyl}oxy)propyl]-2-methyl-3-(2-phenylethyl)-1H-imidazol-3-ium bromide] | 0.1 to 3.16 nM
12 | Cc1n(CCCOC(=O)[C@](O)(c2ccccc2)[C@@H]2CCC(F)(F)C2)cc[n+]1C [Compound No. 30, 1-[3-({(2R)-2-[(1R)-3,3-Difluorocyclopentyl]-2-hydroxy-2-phenylacetyl}oxy)propyl]-2,3-dimethyl-1H-imidazol-3-ium bromide] | 0.1 to 3.16 nM
13 | Cc1n(CCCOC(=O)[C@](O)(c2ccccc2)[C@@H]2CCCC(F)(F)C2)cc[n+]1Cc1ccc(F)cc1 [Compound No. 31, 1-[3-({(2R)-2-[(1R)-3,3-Difluorocyclohexyl]-2-hydroxy-2-phenylacetyl}oxy)propyl]-3-(4-fluorobenzyl)-2-methyl-1H-imidazol-3-ium bromide] | 0.1 to 3.16 nM
14 | Cc1n(CCCOC(=O)[C@](O)(c2ccccc2)[C@@H]2CCCC(F)(F)C2)cc[n+]1Cc1ccccc1 [Compound No. 37, 3-Benzyl-1-[3-({(2R)-2-[(1R)-3,3-difluorocyclohexyl]-2-hydroxy-2-phenylacetyl}oxy)propyl]-2-methyl-1H-imidazol-3-ium chloride] | 0.1 to 3.16 nM
15 | CCCC[n+]1ccn(CCCOC(=O)[C@](O)(c2ccccc2)[C@@H]2CCC(F)(F)C2)c1C [Compound No. 51, 3-Butyl-1-[3-({(2R)-2-[(1R)-3,3-difluorocyclopentyl]-2-hydroxy-2-phenylacetyl}oxy)propyl]-2-methyl-1H-imidazol-3-ium bromide] | 0.1 to 3.16 nM
16 | Cc1n(CCOC(=O)[C@](O)(c2ccccc2)[C@@H]2CCC(F)(F)C2)cc[n+]1CC1CC1 [Compound No. 85, 3-(Cyclopropylmethyl)-1-[2-({(2R)-2-[(1R)-3,3-difluorocyclopentyl]-2-hydroxy-2-phenylacetyl}oxy)ethyl]-2-methyl-1H-imidazol-3-ium bromide] | 0.1 to 3.16 nM
17 | CCCC[n+]1ccn(CCCOC(=O)C(O)(c2cccs2)c2cccs2)c1C [Compound No. 95, 3-Butyl-1-{3-[2-hydroxy(di-2-thienyl)acetoxy]propyl}-2-methyl-1H-imidazol-3-ium bromide] | 0.1 to 3.16 nM
